Where a SMILES comes first, the peptide text is derived from it. Bridges are numbered along the chain shown (N, C = ends). [ ]: non-standard residue; d: D form. The star is where a group is joined. ξ: configuration not given here. Phe(4-COOH) = N[C@@H](Cc1ccc(C(=O)O)cc1)C(=O)O; Bip = N[C@@H](Cc1ccc(-c2ccccc2)cc1)C(=O)O; Phe(3-Me) = Cc1cccc(C[C@H](N)C(=O)O)c1; Cha = N[C@@H](CC1CCCCC1)C(=O)O; Cit = NC(=O)NCCC[C@H](N)C(=O)O; Thr(3ξ) = CC(O)[C@H](N)C(=O)O; hSer = N[C@@H](CCO)C(=O)O; Carboxymethyl = O=C(O)C*; NMeA = CN[C@@H](C)C(=O)O; Aun = NCCCCCCCCCCC(=O)O; Dab = NCC[C@H](N)C(=O)O; AEEA = NCCOCCOCC(=O)O
target: T1, PD-1/PD-L1 interaction (PE-labeled human PD-L1-Ig binding to Jurkat cell line over-expressing human PD-1) (Homo sapiens, UniProt Q15116); assay: Jurkat-PD-1 Cell Binding High-Content Screening Assay (CBA); conditions: Jurkat-hPD-1 cells, PE-labeled PD-L1-Ig 20 nM final; read-out: Jurkat HPD1 PDL1 IC50
T1 construct: expressed in transfected cells; host or cells: Jurkat
In short: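 Jurkat-hPD-1 cells (8×10^3/well) in DMEM with 10% fetal calf serum were preincubated with compound for 2 h at 37 °C. PE-labeled PD-L1-Ig was then added at 20 nM final for 1 h. Cells were fixed in paraformaldehyde with Hoechst 33342, washed and imaged by high-content imaging.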

T1 sequence (Q15116 25-288): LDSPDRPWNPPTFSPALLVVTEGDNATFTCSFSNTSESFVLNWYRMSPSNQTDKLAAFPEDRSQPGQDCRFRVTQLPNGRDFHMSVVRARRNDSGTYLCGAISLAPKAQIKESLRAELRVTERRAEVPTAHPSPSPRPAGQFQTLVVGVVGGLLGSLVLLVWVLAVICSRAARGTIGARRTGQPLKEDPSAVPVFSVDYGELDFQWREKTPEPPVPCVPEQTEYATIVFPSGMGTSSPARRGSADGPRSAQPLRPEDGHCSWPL

Point of comparison: `Cc1cccc(C[C@@H]2NC(=O)[C@H](CC(=O)O)NC(=O)[C@H](Cc3ccc(OCC(=O)O)cc3)NC(=O)[C@H](C(C)O)NC(=O)CSC[C@@H](C(=O)N[C@@H](CCN)C(=O)NCCCCCCCCCCC(=O)O)NC(=O)[C@H](C(C)O)NC(=O)[C@H](C(C)C)NC(=O)[C@H](CC3CCCCC3)NC(=O)[C@H](CCN)NC(=O)[C@@H](CC(C)C)NC(=O)[C@H](C)N(C)C(=O)[C@H](Cc3ccc(C(=O)O)cc3)NC(=O)[C@H](Cc3ccc(-c4ccccc4)cc3)NC(=O)[C@H](Cc3ccc(C(=O)O)cc3)NC2=O)c1` (stereo partly drawn) [Example 2311] ({CH2CO}-[Thr(3ξ)]Y(Carboxymethyl)D[Phe(3-Me)][Phe(4-COOH)][Bip][Phe(4-COOH)][NMeA][dL][Dab][Cha]V[Thr(3ξ)]C[Dab][Aun]-OH; thioether N-14), IC50 21.3 nM. Against it:
- Cc1cccc(C[C@@H]2NC(=O)[C@H](CC(=O)O)NC(=O)[C@H](Cc3ccc(OCC(=O)O)cc3)NC(=O)[C@H](C(C)O)NC(=O)CSC[C@@H](C(=O)N[C@@H](CCN)C(=O)NCCCCCCCCCCC(=O)O)NC(=O)[C@H](C(C)O)NC(=O)[C@H](C(C)C)NC(=O)[C@H](CC3CCCCC3)NC(=O)[C@H](CCN)NC(=O)[C@@H](CC(C)C)NC(=O)[C@H](C)N(C)C(=O)[C@H](Cc3ccc(OCC(=O)O)cc3)NC(=O)[C@H](Cc3ccc(-c4ccccc4)cc3)NC(=O)[C@H](C(C)C)NC2=O)c1 (stereo partly drawn) [Example 2309] ({CH2CO}-[Thr(3ξ)]Y(Carboxymethyl)D[Phe(3-Me)]V[Bip]Y(Carboxymethyl)[NMeA][dL][Dab][Cha]V[Thr(3ξ)]C[Dab][Aun]-OH; thioether N-14) — within 1.5-fold, 27.9 nM
- Cc1cccc(C[C@@H]2NC(=O)[C@H](CC(=O)O)NC(=O)[C@H](Cc3ccc(OCC(=O)O)cc3)NC(=O)[C@H](C(C)O)NC(=O)CSC[C@@H](C(=O)N[C@@H](CCN)C(=O)NCCCCCCCCCCC(=O)O)NC(=O)[C@H](C(C)O)NC(=O)[C@H](C(C)C)NC(=O)[C@H](CC3CCCCC3)NC(=O)[C@H](CCN)NC(=O)[C@@H](CC(C)C)NC(=O)[C@H](C)N(C)C(=O)[C@H](Cc3ccc(OCC(=O)O)cc3)NC(=O)[C@H](Cc3ccc(-c4ccccc4)cc3)NC(=O)[C@H](Cc3ccc(OCC(=O)O)cc3)NC2=O)c1 (stereo partly drawn) [Example 2310] ({CH2CO}-[Thr(3ξ)]Y(Carboxymethyl)D[Phe(3-Me)]Y(Carboxymethyl)[Bip]Y(Carboxymethyl)[NMeA][dL][Dab][Cha]V[Thr(3ξ)]C[Dab][Aun]-OH; thioether N-14) — 1.8-fold lower, 12.1 nM
- Cc1cccc(C[C@@H]2NC(=O)[C@H](CC(=O)O)NC(=O)[C@H](Cc3ccc(OCC(=O)O)cc3)NC(=O)[C@H](CCCNC(=N)N)NC(=O)CSC[C@@H](C(=O)N[C@H](CC(N)=O)C(=O)NCCCCCCCCCCC(=O)O)NC(=O)[C@H](C(C)O)NC(=O)[C@H](C(C)C)NC(=O)[C@H](CC3CCCCC3)NC(=O)[C@H](CCN)NC(=O)[C@@H](CC(C)C)NC(=O)[C@H](C)N(C)C(=O)[C@H](CCCNC(N)=O)NC(=O)[C@H](Cc3ccc(-c4ccccc4)cc3)NC(=O)[C@H](C(C)C)NC2=O)c1 (stereo partly drawn) [Example 2312] ({CH2CO}-RY(Carboxymethyl)D[Phe(3-Me)]V[Bip][Cit][NMeA][dL][Dab][Cha]V[Thr(3ξ)]C[dN][Aun]-OH; thioether N-14) — 2.4-fold lower, 8.7 nM
- Cc1cccc(C[C@@H]2NC(=O)[C@H](CC(=O)O)NC(=O)[C@H](Cc3ccc(OCC(=O)O)cc3)NC(=O)[C@H](C(C)O)NC(=O)CSC[C@@H](C(=O)N[C@H](CC(N)=O)C(=O)NCCCCCCCCCCC(=O)O)NC(=O)[C@H](C(C)O)NC(=O)[C@H](C(C)C)NC(=O)[C@H](CC3CCCCC3)NC(=O)[C@H](CCN)NC(=O)[C@@H](CC(C)C)NC(=O)[C@H](C)N(C)C(=O)[C@H](CCCNC(N)=O)NC(=O)[C@H](Cc3ccc(-c4ccccc4)cc3)NC(=O)[C@H](C(C)C)NC2=O)c1 (stereo partly drawn) [Example 2313] ({CH2CO}-[Thr(3ξ)]Y(Carboxymethyl)D[Phe(3-Me)]V[Bip][Cit][NMeA][dL][Dab][Cha]V[Thr(3ξ)]C[dN][Aun]-OH; thioether N-14) — 2.1-fold lower, 10.1 nM
- Cc1cccc(C[C@@H]2NC(=O)[C@H](CC(=O)O)NC(=O)[C@H](Cc3ccc(OCC(=O)O)cc3)NC(=O)[C@H](C(C)O)NC(=O)CSC[C@@H](C(=O)N[C@H](CC(N)=O)C(=O)NCCCCCCCCCCC(=O)O)NC(=O)[C@H](C(C)O)NC(=O)[C@H](C(C)C)NC(=O)[C@H](CC3CCCCC3)NC(=O)[C@H](CCN)NC(=O)[C@@H](CC(C)C)NC(=O)[C@H](C)N(C)C(=O)[C@H](Cc3ccc(O)cc3)NC(=O)[C@H](Cc3ccc(-c4ccccc4)cc3)NC(=O)[C@H](Cc3ccc(O)cc3)NC2=O)c1 (stereo partly drawn) [Example 2314] ({CH2CO}-[Thr(3ξ)]Y(Carboxymethyl)D[Phe(3-Me)]Y[Bip]Y[NMeA][dL][Dab][Cha]V[Thr(3ξ)]C[dN][Aun]-OH; thioether N-14) — within 1.5-fold, 21.7 nM
- Cc1cccc(C[C@@H]2NC(=O)[C@H](CC(=O)O)NC(=O)[C@H](Cc3ccc(OCC(=O)O)cc3)NC(=O)[C@H](C(C)O)NC(=O)CSC[C@@H](C(=O)N[C@H](CC(N)=O)C(=O)NCCCCCCCCCCC(=O)O)NC(=O)[C@H](C(C)O)NC(=O)[C@H](C(C)C)NC(=O)[C@H](CC3CCCCC3)NC(=O)[C@H](CCN)NC(=O)[C@@H](CC(C)C)NC(=O)[C@H](C)N(C)C(=O)[C@H](CCCNC(N)=O)NC(=O)[C@H](Cc3ccc(-c4ccccc4)cc3)NC(=O)[C@H](Cc3ccccc3)NC2=O)c1 (stereo partly drawn) [Example 2315] ({CH2CO}-[Thr(3ξ)]Y(Carboxymethyl)D[Phe(3-Me)]F[Bip][Cit][NMeA][dL][Dab][Cha]V[Thr(3ξ)]C[dN][Aun]-OH; thioether N-14) — 2.2-fold lower, 9.7 nM
- CC(=O)NCCCC[C@@H]1NC(=O)[C@H](Cc2ccc(-c3ccccc3)cc2)NC(=O)[C@H](C(C)C)NC(=O)[C@H](Cc2c[nH]c3ccccc23)NC(=O)[C@H](CC(=O)O)NC(=O)[C@H](Cc2ccc(OCC(=O)O)cc2)NC(=O)[C@H](Cc2ccc(OCC(=O)O)cc2)NC(=O)CSC[C@@H](C(=O)NCCOCCOCC(=O)NCCCCCCCCCCC(=O)O)NC(=O)[C@H](CCO)NC(=O)[C@H](C(C)C)NC(=O)[C@H](CC2CCCCC2)NC(=O)[C@H](CCN)NC(=O)[C@@H](CC(C)C)NC(=O)[C@H](C)N(C)C1=O [Example 2316] ({CH2CO}-Y(Carboxymethyl)Y(Carboxymethyl)DWV[Bip]K(Ac)[NMeA][dL][Dab][Cha]V[hSer]C[AEEA][Aun]-OH; thioether N-14) — 1.9-fold lower, 11.3 nM
- Cc1cccc(C[C@@H]2NC(=O)[C@H](CC(=O)O)NC(=O)[C@H](Cc3ccc(C(=O)O)cc3)NC(=O)[C@H](Cc3ccc(OCC(=O)O)cc3)NC(=O)CSC[C@@H](C(=O)NCCOCCOCC(=O)NCCCCCCCCCCC(=O)O)NC(=O)[C@H](CCO)NC(=O)[C@H](C(C)C)NC(=O)[C@H](CC3CCCCC3)NC(=O)[C@H](CCN)NC(=O)[C@@H](CC(C)C)NC(=O)[C@H](C)N(C)C(=O)[C@H](CCCNC(N)=O)NC(=O)[C@H](Cc3ccc(-c4ccccc4)cc3)NC(=O)[C@H](C(C)C)NC2=O)c1 [Example 2317] ({CH2CO}-Y(Carboxymethyl)[Phe(4-COOH)]D[Phe(3-Me)]V[Bip][Cit][NMeA][dL][Dab][Cha]V[hSer]C[AEEA][Aun]-OH; thioether N-14) — 2.4-fold lower, 8.9 nM
- Cc1cccc(C[C@@H]2NC(=O)[C@H](CC(=O)O)NC(=O)[C@H](Cc3ccc(OCC(=O)O)cc3)NC(=O)[C@H](CCCNC(=N)N)NC(=O)CSC[C@@H](C(=O)NCCOCCOCC(=O)NCCCCCCCCCCC(=O)O)NC(=O)[C@H](C(C)O)NC(=O)[C@H](C(C)C)NC(=O)[C@H](CC3CCCCC3)NC(=O)[C@H](CCN)NC(=O)[C@@H](CC(C)C)NC(=O)[C@H](C)N(C)C(=O)[C@H](CCCNC(N)=O)NC(=O)[C@H](Cc3ccc(-c4ccccc4)cc3)NC(=O)[C@H](C(C)C)NC2=O)c1 (stereo partly drawn) [Example 2318] ({CH2CO}-RY(Carboxymethyl)D[Phe(3-Me)]V[Bip][Cit][NMeA][dL][Dab][Cha]V[Thr(3ξ)]C[AEEA][Aun]-OH; thioether N-14) — 2.7-fold lower, 7.8 nM
- CC(C)C[C@H]1NC(=O)[C@H](C)N(C)C(=O)[C@H](CCCNC(N)=O)NC(=O)[C@H](Cc2ccc(-c3ccccc3)cc2)NC(=O)[C@H](C(C)C)NC(=O)[C@H](Cc2c[nH]c3ccccc23)NC(=O)[C@H](CC(=O)O)NC(=O)[C@H](Cc2ccc(OCC(=O)O)cc2)NC(=O)[C@H](Cc2ccc(OCC(=O)O)cc2)NC(=O)CSC[C@@H](C(=O)NCCOCCOCC(=O)NCCCCCCCCCCC(=O)O)NC(=O)[C@H](CCO)NC(=O)[C@H](C(C)C)NC(=O)[C@H](CC2CCCCC2)NC(=O)[C@H](CCN)NC1=O [Example 2319] ({CH2CO}-Y(Carboxymethyl)Y(Carboxymethyl)DWV[Bip][Cit][NMeA][dL][Dab][Cha]V[hSer]C[AEEA][Aun]-OH; thioether N-14) — within 1.5-fold, 15.6 nM
- Cc1cccc(C[C@@H]2NC(=O)[C@H](CC(=O)O)NC(=O)[C@H](Cc3ccc(OCC(=O)O)cc3)NC(=O)[C@H](C(C)O)NC(=O)CSC[C@@H](C(=O)NCCOCCOCC(=O)NCCCCCCCCCCC(=O)O)NC(=O)[C@H](C(C)O)NC(=O)[C@H](C(C)C)NC(=O)[C@H](CC3CCCCC3)NC(=O)[C@H](CCN)NC(=O)[C@@H](CC(C)C)NC(=O)[C@H](C)N(C)C(=O)[C@H](CCCNC(N)=O)NC(=O)[C@H](Cc3ccc(-c4ccccc4)cc3)NC(=O)[C@H](C(C)C)NC2=O)c1 (stereo partly drawn) [Example 2320] ({CH2CO}-[Thr(3ξ)]Y(Carboxymethyl)D[Phe(3-Me)]V[Bip][Cit][NMeA][dL][Dab][Cha]V[Thr(3ξ)]C[AEEA][Aun]-OH; thioether N-14) — 3-fold lower, 7.1 nM
- CC(=O)NCCCC[C@@H]1NC(=O)[C@H](Cc2ccc(-c3ccccc3)cc2)NC(=O)[C@H](C(C)C)NC(=O)[C@H](Cc2c[nH]c3ccccc23)NC(=O)[C@H](CC(=O)O)NC(=O)[C@H](Cc2ccc(OCC(=O)O)cc2)NC(=O)[C@H](Cc2ccc(OCC(=O)O)cc2)NC(=O)CSC[C@@H](C(=O)NCCOCCOCC(=O)NCCCCCCCCCCC(=O)O)NC(=O)[C@H](C(C)O)NC(=O)[C@H](C(C)C)NC(=O)[C@H](CC2CCCCC2)NC(=O)[C@H](CCN)NC(=O)[C@@H](CC(C)C)NC(=O)[C@H](C)N(C)C1=O (stereo partly drawn) [Example 2321] ({CH2CO}-Y(Carboxymethyl)Y(Carboxymethyl)DWV[Bip]K(Ac)[NMeA][dL][Dab][Cha]V[Thr(3ξ)]C[AEEA][Aun]-OH; thioether N-14) — 3.7-fold lower, 5.8 nM

— patent US20260070945A1, “MACROCYCLIC IMMUNOMODULATORS” (Bristol-Myers Squibb Company, priority 2022, published 2026)
